{"source": "patent US20110236307A1", "about": "“IN VIVO IMAGING METHOD” (priority 2008, published 2011)", "origin": "cited, not measured here", "tested_on": "protein deposition in PD", "conditions": "PD patients, brain", "data": [{"smiles": "[11CH3]Nc1ccc(-c2nc3ccc(O)cc3s2)cc1", "note": "[[^11C]PIB, ^11C-6-OH-benzothiazole]", "values": [{"measurement": "in vivo binding pattern", "value": "decreased from the brainstem to the cortical areas"}]}]}
